Patent US20070021359A1, “Addition salts of azithromycin and citric acid and process for preparing them” (priority 2003, published 2007)

Legend:
[1] = cited from earlier work
[2] = cited from earlier work; remark: listed apart in the source
[3] = solubility in water / aqueous solutions; type: physicochemical; settings: aqueous solution, ambient temperature
Excerpt: The azithromycin citrate of the invention provides aqueous solutions up to 65% (w/w) at ambient temperature, with a pH between 6.8 and 7.5. The new addition salts of azithromycin and citric acid of the invention are particularly useful in the preparation of aqueous or water-alcohol solutions of azitromycin containing up to 65% of the salt, providing a pH between 4 and 8, stable and not suffering from chemical degradation of azithromycin.

| concentration of aqueous solutions provided [3] | Compound | solubility in water [1] | stability in aqueous acid medium [2] |
| --- | --- | --- | --- |
| – | CC[C@H]1OC(=O)[C@H](C)[C@@H](O[C@H]2C[C@@](C)(OC)[C@@H](O)[C@H](C)O2)[C@H](C)[C@@H](O[C@@H]2O[C@H](C)C[C@H](N(C)C)[C@H]2O)[C@](C)(O)C[C@@H](C)CN(C)[C@H](C)[C@@H](O)[C@]1(C)O [azithromycin, 9-deoxo-9a-aza-9a-methyl-9a-homoerythromycin A] | very insoluble | not stable |
| up to 65 % (w/w) | azithromycin citrate | – | – |
